In patent publication US4109009A, “Analgesic, relaxant, and anti-inflammatory cyclopentanol derivatives” (Roussel Uclaf, priority 1975, dated 1978):
Converted amounts (≈) assume the structure as drawn.

Assays:
guinea pig ileon = experiment: Relaxant activity on the guinea pig ileon; settings: Cavia porcellus, Tyrode 37° C, concentration suppressing spontaneous contractions and relaxing the organ, read-out: Relaxant action
Method: B. Relaxant Activity on the guinea pig ileon
The relaxant effect of the test compounds was determined on guinea pig ileon using the procedure of Test A above. The terminal portion of the guinea pig ileon was removed and washed with Tyrode solution at 37° C. It was then suspended in an bath of oxygenated Tyrode liquid at 37° C and the contractions were registered on a collector attached to a Sanborn polygraph. The test product was added to bath of the organ with a low volume and the concentration which caused a suppression of spontaneous contractions and relaxed the organ, cuasing a lowering of the line of the base was considered to be relaxant.

[1] = tested on: prostaglandin synthetases of lungs of guinea pigs; experiment: Inhibitory effect against biosynthesis of prostaglandins from arachidonic acid (Vane); type: biochemical; settings: guinea pig lung homogenate supernatant, arachidonic acid 10 μg, 30 minutes at 37° C; read-out on isolated rat colon; read-out: CI50 (the source's name)
Excerpt: D. Inhibitory effect against biosynthesis of prostaglandins
Synthesis of prostaglandins starting with arachidonic acid by means of prostaglandin synthetases of lungs of guinea pigs
This test used the procedure of Vane [Nature New-Biology, Vo. 231 (1971), p. 232-235] wherein the lungs of adult guinea pigs (two per series) were rapidly removed and washed with a modified, iced Bucher medium. The lung tissue was homogenized in a Turrax grinder in a minute and the homogenate was centrifuged for 20 minutes to 1200 g. The supernatant was used as a preparation of prostaglandin synthetases.
A solution of arachidonic acid in ethanol at a concentration of 10 mg/ml was diluted with a 0.2% aqueous sodium carbonate solution and was then diluted further with a modified Bucher medium to obtain a final acid concentration of 200 μg/ml. The biosynthesis inhibitors are put into aqueous on dilute alcohol (20% maximum) solutions. Tubes were prepared containing 1 ml of the prostaglandin synthetases preparation, 10 μg of arachidonic acid and 0.1 ml of inhibiting solution or, for the controls, an equal volume of water or dilute alcohol. The tubes were incubated with stirring for 30 minutes at 37° C in aerobic conditions and each test consisted of a tube containing a biosynthesis inhibitor, one biosynthesis control with incubated arachidonic acid and one control with non-incubated arachidonic acid. The latter control permitted a evaluation of amount of natural prostaglandins present in the ground lung and the results obtained with this control must therefore be taken away from the control of biosynthesis and from all the tests. The reactions are stopped by immersion in boiling water until the proteins are coagulated. The dosage of "prostaglandin like" activity was effected biologically on the isolated rat colon suspended in Krebs liquid, mixed to augment the specificity, with antagonists to other contracturant mediators susceptible to interfere. The antagonists were mepyramine, scopolamine, methysergide, phenoxybenzamine and propanolol.
A comparison of the results registered in the presence or absence of a test product permitted the calculation of the percentage of biosynthesis inhibition. The CI50 dose which inhibited by 50% the biosynthesis activity was graphically obtained by straight line representing the percent of inhibition with reference to the incubated controls against the log of the concentration in μg/ml and the results are reported in Table IV.

prostaglandin E2 = experiment: Antagonistic activity to the contracturant effect of prostaglandin E2 (isolated rat colon, method of Magnus); settings: Krebs 37° C, product added 30 seconds before PGE2 (5 to 10 ng/ml), 50% inhibition of contractions
Method: A. Antagonistic activity to the contracturant effect of prostaglandin E2
The antagonistic effect of the test compounds to the contracturant activity of prostaglandin E2 was determined by the method of Magnus wherein a portion of the colon adjacent to the caecum was removed from a rat and was washed with a Krebs solution at 37° C. The colon was then suspended in a bath of oxygenated Krebs liquid kept at 37° C and the contactions of the organ were registered with a collector attached to a Sanborn polygraph. The organ was first standarized with prostaglandin E2 to determine the concentration necessary to obtain a significant contraction (5 to 10 ng/ml). The antagonistic product was added to the bath 30 seconds before the standard dose of PGE2 and the intensity of the contraction was measured. The concentration of product which inhibited by 50% the contractions provoked by PGE2 was determined by the straight line effect-log of the dose and the CI50 is reported in Table I.

mice = experiment: Analgesic activity -- stretching provoked by acetic acid (Koster et al); type: in vivo; settings: Mus musculus, 0.25 h, oral, one half hour before intraperitoneal acetic acid, 15 minute observation, dose reducing stretchings by 50%, read-out: DA50 (the source's name)
Method: C. Analgesic Activity -- stretching provoked by acetic acid
The test procedure was that of Koster et al wherein an interitoneal injection of aqueous acetic acid in a concentration of 1% at a dose of 100 mg/kg caused in mice repeated movements of strectching and twisting which can persist for more than 6 hours. Analgesics prevent or lessen the syndrome. The test products were orally administered one half hour before the acetic acid injection and the mice were fasted from the day before the tests. The stretching were counted for each mouse during a 15 minute observation period beginning right after the acetic acid injection and the analgesic affect was expressed as a percentage of protection with respect to the controls.

SMILES | minimal effective concentration (guinea pig ileon) [µg/mL] | IC50 [1] [µM] | CI50 against PGE2 (prostaglandin E2) [µg/mL] | ED50 (mice) [mg/kg]
CCCCC[C@@H](CC[C@H]1CC[C@@H](O)[C@@H]1C(=O)OCC)OC1CCCCO1 (relative stereo) [K] | 5 |  |  | 
CCCCCCCCCOC(=O)[C@H]1[C@@H](O)CC[C@@H]1/C=C/[C@@H](O)CCCCC (relative stereo) [D] | 10 | 523 |  | 
CCCCC[C@@H](/C=C/[C@H]1CC[C@H](O)[C@@H]1C(=O)OCC)OC1CCCCO1 (relative stereo) [F] | 20 | 54 | 20 (≈ 54.3 µM) | ~100
C#C[C@@](/C=C/[C@H]1CC[C@@H](O)[C@@H]1C(=O)OCC)(CCCCC)OC1CCCCO1 (relative stereo) [P] | 5 | 382 |  | ~100
CCCCC[C@@H](/C=C/[C@H]1CC[C@@H](O)[C@@H]1C(=O)CCC)OC1CCCCO1 (relative stereo) [Q] | 10 |  |  | 
CCCCCC(C)(O)/C=C/[C@H]1CC[C@H](O)[C@@H]1C(=O)OCC (some centres unmarked) [E] | 5 | 604 |  | 
CCCCC[C@@H](/C=C/[C@H]1CC[C@@H](O)[C@@H]1C(=O)OCC)OC1CCCCO1 (relative stereo) [G] | 20 | 204 | 20 (≈ 54.3 µM) | ~100
C#C[C@@](O)(/C=C/[C@H]1CC[C@H](O)[C@@H]1C(=O)OCC)CCCCC (relative stereo) [N] | 5 |  |  | 
CCCCC[C@@H](/C=C/[C@H]1CC[C@@H](O)[C@H]1C(=O)OCC)OC1CCCCO1 (relative stereo) [R] |  | 542 |  | 
CCCCC[C@H](O)/C=C/[C@H]1CC[C@@H](O)[C@@H]1C(=O)OCC (relative stereo) [A] | 20 |  | 20 (≈ 70.3 µM) | 
CCCCC[C@@H](/C=C/[C@H]1CC[C@H](O)[C@@H]1C(=O)OCCC)OC1CCCCO1 (relative stereo) [J] | 10 |  |  | 
CCCCC[C@@H](/C=C/[C@H]1CC[C@H](O)[C@@H]1C(=O)OC)OC1CCCCO1 (relative stereo) [I] | 5 |  |  | 
CCCCC[C@@H](CC[C@H]1CC[C@H](O)[C@@H]1C(=O)OCC)OC1CCCCO1 (relative stereo) [H] | 10 |  |  | 
CCCCC[C@@H](/C=C/[C@H]1CC[C@@H](O)[C@@H]1C(=O)OC)OC1CCCCO1 (relative stereo) [L] | 5 |  |  | 
C#C[C@@](/C=C/[C@H]1CC[C@H](O)[C@@H]1C(=O)OCC)(CCCCC)OC1CCCCO1 (relative stereo) [Product O, Ethyl (1RS, 2SR, 5RS, 3'SR) (1'E) 2-hydroxy-5-(3'-α-tetrahydropyranyloxy-3'-ethynyl-1'-octenyl)-cyclopentanecarboxylate] | 10 |  |  | 
CCCCC[C@@H](/C=C/[C@H]1CC[C@H](O)[C@@H]1C(=O)CCC)OC1CCCCO1 (relative stereo) [S] |  | 628 |  | 
CCCCC[C@@H](/C=C/[C@H]1CC[C@@H](O)[C@@H]1C(=O)OCCC)OC1CCCCO1 (relative stereo) [M] | 5 | 652 |  | 
CCCCCC(C)(O)/C=C/[C@H]1CC[C@@H](O)[C@@H]1C(=O)OCC (some centres unmarked) [C] | 1 | 503 |  | 
CCCCC[C@H](O)/C=C/[C@H]1CC[C@H](O)[C@@H]1C(=O)OCC (relative stereo) [B] | 20 | 376 |  | 100
C#C[C@@](/C=C/[C@H]1CC[C@H](O)[C@@H]1C(=O)OCC)(CCCCC)OC1CCCCO1 (relative stereo) [O] |  | 229 |  | 
